Results on seven compounds are retold here after patent publication US20140121216A1, “INDOLEAMINE DERIVATIVES FOR THE TREATMENT OF CENTRAL NERVOUS SYSTEM DISEASES” (Adamed Sp. z o.o., priority 2011, published 2014).

The target in assay [1] is T1, 5-HT2C receptor, human recombinant (HEK-293 cells) (Homo sapiens, UniProt P28335).
T1 construct: expressed in transfected cells; host or cells: HEK-293 cells
T1 sequence (P28335 33-458): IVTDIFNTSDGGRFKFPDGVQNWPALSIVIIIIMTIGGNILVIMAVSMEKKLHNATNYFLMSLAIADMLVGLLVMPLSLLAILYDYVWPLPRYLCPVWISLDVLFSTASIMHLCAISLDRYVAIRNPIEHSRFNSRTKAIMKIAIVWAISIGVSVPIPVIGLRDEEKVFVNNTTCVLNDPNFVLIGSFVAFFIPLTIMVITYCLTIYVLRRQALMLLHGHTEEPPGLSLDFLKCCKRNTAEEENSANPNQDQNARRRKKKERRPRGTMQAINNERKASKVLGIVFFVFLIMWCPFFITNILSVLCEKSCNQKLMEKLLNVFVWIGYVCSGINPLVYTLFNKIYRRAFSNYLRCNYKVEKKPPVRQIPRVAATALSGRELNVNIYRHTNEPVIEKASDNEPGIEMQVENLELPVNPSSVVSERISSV
Briefly: Binding assay, 5-HT2C receptor ([3H]mesulergine). The conditions noted are these: for 5-HT2C [%] binding assay result: compound 1×10^−6 M. How it is done:
(§1) Moreover, ability of the compounds of the invention to block potassium channel hERG was tested.
(§2) The specific ligand binding to the receptors is defined as the difference between the total binding and the non-specific binding determined in the presence of an excess of unlabelled ligand.
(§3) The inhibition constants (Ki) were calculated using the Cheng Prusoff equation (Ki=IC50/(1+(L/KD)), where L=concentration of radioligand in the assay, and KD=affinity of the radioligand for the receptor). A Scatchard plot is used to determine the Kd. The IC50 values (concentration causing a half-maximal inhibition of control specific binding) and Hill coefficients (nH) were determined by non-linear regression analysis of the competition curves generated with mean replicate values using Hill equation curve fitting (Y=D+[(A−D)/(1+(C/C50)^nH)], where Y=specific binding, D=minimum specific binding, A=maximum specific binding, C=compound concentration, C50=IC50, and nH=slope factor).

Assay [2] relates to σ receptors (rat cerebral cortex). Briefly: Binding assay, σ receptors ([3H]DTG). To be noted: compound 1×10^−6 M. The procedure: as §1, §2
as §3, with “factor). This analysis was performed using a software developed at Cerep (Hill software) and validated by comparison with data generated by the commercial software SigmaPlot® 4.0 for Windows® (©1997 by SPSS Inc.).” for “factor).”
(§4) Experimental conditions for tests are given in Table 14, and results of tests for representative compounds are given in Table 15a and 15b.

In assay [3] the target is T2, H1 histaminergic receptors, human recombinant (HEK-293 cells) (Homo sapiens, UniProt P35367).
T2 construct: expressed in transfected cells; host or cells: HEK-293 cells
The experiment in a line: Binding assay, H1 histaminergic receptor ([3H]pyrilamine). The conditions noted are these: for H1 [%] affinity test result: compound 1×10^−6 M; for Ki: read-out: Inhibition constant Ki H1. The procedure: as §1, §2
as §3, with “factor). This analysis was performed using a software developed at Cerep (Hill software) and validated by comparison with data generated by the commercial software SigmaPlot® 4.0 for Windows® (©1997 by SPSS Inc.).” for “factor).”
as §4

The target of assay [4] is T3, D3 (h), human recombinant (CHO cells) (Homo sapiens, UniProt P35462).
T3 construct: expressed in transfected cells; host or cells: CHO cells
The experiment in a line: Cellular functional assay D3 (h) antagonism. Type of assay: cell-based. To be noted: compound 1×10^−6 M; stimulus dopamine 10 nM. How it is done: (§5) The results are expressed as a percent of control specific agonist response ((measured specific response/control specific agonist response)×100) obtained in the presence of tested compound.
(§6) The EC50 values (concentration producing a half-maximal specific response) and IC50 values (concentration causing a half-maximal inhibition of the control specific agonist response) were determined by non-linear regression analysis of the concentration-response curves generated with mean replicate values using Hill equation curve fitting (Y=D+[(A−D)/(1+(C/C50)nH)], where Y=specific response, D=minimum specific response, A=maximum specific response, C=compound concentration, and C50=EC50 or IC50, and nH=slope factor).
(§7) For the antagonists, the apparent dissociation constants (Kb) were calculated using the modified Cheng Prusoff equation (Kb=IC50/(1+(A/EC50A)), where A=concentration of reference agonist in the assay, and EC50A=EC50 value of the reference agonist).

Assay [5] deals with T4, 5-HT1A (h), human recombinant (CHO cells) (Homo sapiens, UniProt P08908).
T4 construct: expressed in transfected cells; host or cells: CHO cells
T4 sequence (P08908 1-422): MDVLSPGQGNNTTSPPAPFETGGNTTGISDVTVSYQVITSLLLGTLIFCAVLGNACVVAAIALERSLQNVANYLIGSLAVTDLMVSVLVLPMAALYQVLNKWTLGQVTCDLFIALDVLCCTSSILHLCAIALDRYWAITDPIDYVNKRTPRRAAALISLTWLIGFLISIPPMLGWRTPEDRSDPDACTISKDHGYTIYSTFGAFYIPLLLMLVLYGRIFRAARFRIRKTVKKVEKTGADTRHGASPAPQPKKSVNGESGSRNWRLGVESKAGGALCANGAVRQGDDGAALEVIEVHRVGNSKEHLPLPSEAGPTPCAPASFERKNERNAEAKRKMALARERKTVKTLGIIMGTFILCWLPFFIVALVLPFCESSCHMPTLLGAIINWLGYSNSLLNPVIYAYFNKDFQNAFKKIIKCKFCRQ
The experiment in a line: Cellular functional assay 5-HT1A (h) agonism. Type of assay: cell-based. The conditions noted are these: compound 1×10^−6 M; control 100 nM 8-OHDPAT. How it is done:
as §5, §6, §7

Assay [6] has as its target T5, 5-HT2A (h), human recombinant (HEK-293 cells) (Homo sapiens, UniProt P28223).
T5 construct: expressed in transfected cells; host or cells: HEK-293 cells
The experiment in a line: Cellular functional assay 5-HT2A (h) agonism. Type of assay: cell-based. The conditions noted are these: compound 1×10^−6 M; control 10 μM serotonin. The procedure: as §5, §6, §7

The target in assay [7] is T5, 5-HT2A (h), human recombinant (HEK-293 cells). Briefly: Cellular functional assay 5-HT2A (h) antagonism. Type of assay: cell-based. The conditions noted are these: compound 1×10^−6 M; stimulus serotonin 100 nM. The procedure:
as §5, §6, §7

For assay [8], the target named is T6, 5-HT6 (h), human recombinant (CHO cells) (Homo sapiens, UniProt P50406).
T6 construct: expressed in transfected cells; host or cells: CHO cells
Briefly: Cellular functional assay 5-HT6 (h) agonism. To be noted: compound 1×10^−6 M, control 10 μM serotonin, read-out: 5-HT6-ag [%]. It counts as cell-based. The procedure:
as §5, §6, §7

In assay [9] the target is T7, M3 muscarinic receptors, human recombinant (CHO cells) (Homo sapiens, UniProt P20309).
T7 construct: expressed in transfected cells; host or cells: CHO cells
The experiment in a line: Binding assay, M3 muscarinic receptor ([3H]4-DAMP). The conditions noted are these: compound 1×10^−6 M. How it is done: as §1, §2
as §3, with “factor). This analysis was performed using a software developed at Cerep (Hill software) and validated by comparison with data generated by the commercial software SigmaPlot® 4.0 for Windows® (©1997 by SPSS Inc.).” for “factor).”
Experimental conditions for tests are given in Table 10, and results of tests for representative compounds are given in Table 11.

For assay [10], the target named is 5-HT2A receptor, human recombinant (Homo sapiens, UniProt P28223). Briefly: Binding assay, 5-HT2A receptor ([3H]ketanserin). More on the design: purchased PerkinElmer. To be noted: read-out: Inhibition constant Ki 5-HT2A. How it is done:
as §1, §2, §3

T2 sequence (P35367 whole entry): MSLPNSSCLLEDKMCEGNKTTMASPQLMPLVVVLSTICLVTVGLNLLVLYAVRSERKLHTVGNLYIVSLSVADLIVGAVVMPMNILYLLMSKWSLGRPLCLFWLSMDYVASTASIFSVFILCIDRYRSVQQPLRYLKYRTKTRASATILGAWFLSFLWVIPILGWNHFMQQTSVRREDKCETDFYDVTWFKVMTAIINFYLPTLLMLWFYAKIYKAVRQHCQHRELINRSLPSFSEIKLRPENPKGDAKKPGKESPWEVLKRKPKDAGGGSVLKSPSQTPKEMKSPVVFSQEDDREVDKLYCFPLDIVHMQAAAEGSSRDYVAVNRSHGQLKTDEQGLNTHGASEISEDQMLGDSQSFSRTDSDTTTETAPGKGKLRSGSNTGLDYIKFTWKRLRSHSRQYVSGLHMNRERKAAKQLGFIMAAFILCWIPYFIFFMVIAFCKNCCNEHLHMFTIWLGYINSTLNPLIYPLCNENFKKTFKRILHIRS
T7 sequence (P20309 whole entry): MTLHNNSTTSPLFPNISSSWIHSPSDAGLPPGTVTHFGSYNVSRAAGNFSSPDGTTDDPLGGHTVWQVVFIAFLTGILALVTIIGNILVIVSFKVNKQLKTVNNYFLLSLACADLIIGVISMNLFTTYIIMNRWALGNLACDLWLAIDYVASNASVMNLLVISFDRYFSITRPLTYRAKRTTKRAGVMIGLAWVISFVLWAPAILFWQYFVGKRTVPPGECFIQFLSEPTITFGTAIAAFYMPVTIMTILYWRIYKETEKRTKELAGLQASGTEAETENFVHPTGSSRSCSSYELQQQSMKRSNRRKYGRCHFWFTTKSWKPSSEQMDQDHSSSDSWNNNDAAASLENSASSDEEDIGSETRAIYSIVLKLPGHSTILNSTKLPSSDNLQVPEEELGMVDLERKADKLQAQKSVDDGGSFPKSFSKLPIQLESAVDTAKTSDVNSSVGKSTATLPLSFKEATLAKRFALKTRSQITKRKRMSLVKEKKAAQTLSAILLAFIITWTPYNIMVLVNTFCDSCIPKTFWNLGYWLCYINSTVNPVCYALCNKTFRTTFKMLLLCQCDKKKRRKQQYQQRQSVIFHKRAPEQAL
T3 sequence (P35462 whole entry): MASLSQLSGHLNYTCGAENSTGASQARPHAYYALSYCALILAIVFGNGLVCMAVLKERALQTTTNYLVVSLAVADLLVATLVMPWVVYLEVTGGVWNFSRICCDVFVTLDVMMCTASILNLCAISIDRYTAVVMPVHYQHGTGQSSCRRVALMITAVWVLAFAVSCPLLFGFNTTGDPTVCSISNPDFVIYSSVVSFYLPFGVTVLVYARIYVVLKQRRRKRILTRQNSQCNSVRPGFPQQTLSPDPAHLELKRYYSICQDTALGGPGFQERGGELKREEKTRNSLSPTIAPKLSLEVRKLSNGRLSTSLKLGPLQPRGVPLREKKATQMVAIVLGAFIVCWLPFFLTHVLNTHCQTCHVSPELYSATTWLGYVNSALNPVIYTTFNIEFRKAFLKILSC
T6 sequence (P50406 whole entry): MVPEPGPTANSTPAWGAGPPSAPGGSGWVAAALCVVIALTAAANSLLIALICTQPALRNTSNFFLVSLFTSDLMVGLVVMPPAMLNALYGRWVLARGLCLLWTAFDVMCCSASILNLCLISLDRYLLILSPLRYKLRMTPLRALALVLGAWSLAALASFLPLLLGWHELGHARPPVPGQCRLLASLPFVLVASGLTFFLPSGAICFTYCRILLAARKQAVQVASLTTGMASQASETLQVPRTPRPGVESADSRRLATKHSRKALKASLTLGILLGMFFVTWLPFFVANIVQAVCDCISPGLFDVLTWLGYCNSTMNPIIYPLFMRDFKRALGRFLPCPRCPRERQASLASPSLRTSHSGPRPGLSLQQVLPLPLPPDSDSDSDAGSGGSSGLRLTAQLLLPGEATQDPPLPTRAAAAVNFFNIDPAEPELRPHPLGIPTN
T5 sequence (P28223 whole entry): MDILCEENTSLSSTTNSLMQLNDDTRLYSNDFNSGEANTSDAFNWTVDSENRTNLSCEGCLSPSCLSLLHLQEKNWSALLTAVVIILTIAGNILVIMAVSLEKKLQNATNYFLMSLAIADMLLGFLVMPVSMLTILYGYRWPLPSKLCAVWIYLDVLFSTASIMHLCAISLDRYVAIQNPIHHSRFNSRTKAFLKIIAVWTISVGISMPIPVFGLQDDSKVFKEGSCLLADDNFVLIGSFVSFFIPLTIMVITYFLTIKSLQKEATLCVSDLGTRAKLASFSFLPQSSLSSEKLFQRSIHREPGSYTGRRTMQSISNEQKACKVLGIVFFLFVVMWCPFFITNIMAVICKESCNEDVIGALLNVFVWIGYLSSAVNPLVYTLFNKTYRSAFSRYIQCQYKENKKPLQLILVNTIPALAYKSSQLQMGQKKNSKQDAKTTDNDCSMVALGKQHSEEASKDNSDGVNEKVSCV
5-HT2A receptor, human recombinant, sequence (P28223 whole entry): as above

Consider `O=C1CCc2ccc(OCCCN3CCN(c4cccc5c4ccn5Cc4ccccc4)CC3)cc2N1` [Compound 4, 7-[3-[4-(1-Benzylindol-4-yl)piperazin-1-yl]propoxy]-3,4-dihydro-1H-quinolin-2-one], for which, in assay [1], the “5-HT2C [%] binding assay result” value stood at 73%. Moreover, the “σ [%] affinity test result” value in [2] was 45%. Moreover, the “H1 [%] affinity test result” value in [3] was 73%. Also, the “D3-antag [%]” value in [4] came to 29%. In addition, in [5], the “5-HT1A-ag [%]” value was determined as 63%. The “5-HT2A-ag [%]” value in assay [6] came out at 2%. Moreover, in assay [7], the “5-HT2A-antag [%]” value was 17%. In assay [8], the activation at 1 µM is 0%.

Regarding `O=C1CCc2ccc(OCCCCN3CCN(c4cccc5c4ccn5Cc4ccccc4)CC3)cc2N1` [Compound 5, 7-(4-(4-(1-Benzyl-1H-indol-4-yl)piperazin-1-yl)butoxy)-3,4-dihydroquinolin-2(1H)-one], in assay [1], the “5-HT2C [%] binding assay result” value is 86%. In addition, the “σ [%] affinity test result” value in assay [2] is recorded as 52%. Also, the “H1 [%] affinity test result” value in assay [3] is given as 88%. The “D3-antag [%]” value in assay [4] is given as 43%. In addition, the “5-HT1A-ag [%]” value in [5] amounted to 66%. Also, in assay [6], the “5-HT2A-ag [%]” value worked out at 8%. Also, the “5-HT2A-antag [%]” value in assay [7] is listed as 66%. Besides, the activation at 1 µM in [8] was -1%.

Take `O=C1CCc2ccc(OCCCN3CCN(c4cccc5c4ccn5S(=O)(=O)c4ccccc4)CC3)cc2N1` [Compound 23, 7-[3-[4-[1-(Benzensulphonyl)indol-4-yl]piperazin-1-yl]propoxy]-3,4-dihydro-1H-quinolin-2-one]: the “5-HT2C [%] binding assay result” value in [1] is reported as 0%. Further, in [9], the “M3 [%] affinity test result” value came to 16%. Besides, the “σ [%] affinity test result” value in [2] came to 13%. Besides, in assay [3], the “H1 [%] affinity test result” value is listed as 72% and the Ki (commonly a measure of affinity in units of concentration, obtained from inhibition or displacement) is 150 nM. For the same compound, the “D3-antag [%]” value in assay [4] is recorded as −19%. For the same compound, the “5-HT1A-ag [%]” value in [5] came out at 69%. For the same compound, the activation at 1 µM in assay [8] is 2%. The Ki in assay [10] was 170 nM.

Consider `O=C1CCc2ccc(OCCCCN3CCN(c4cccc5c4ccn5S(=O)(=O)c4ccccc4)CC3)cc2N1` [Compound 24, 7-(4-(4-(1-(Phenylsulphonyl)-1H-indol-4-yl)piperazin-1-yl)butoxy)-3,4-dihydroquinolin-2(1H)-one], for which the “5-HT2C [%] binding assay result” value in [1] came out at 48%. The Ki in assay [1] (read-out: Inhibition constant Ki 5-HT2C) was 610 nM; in assay [3], 100 nM; in [10], 3.2 nM. Besides, the “M3 [%] affinity test result” value in [9] worked out at 37%. Also, the “σ [%] affinity test result” value in assay [2] was 57%. In addition, in assay [3], the “H1 [%] affinity test result” value worked out at 78%. Besides, the “D3-antag [%]” value in [4] stood at 63.2%. For the same compound, the “5-HT1A-ag [%]” value in [5] is recorded as 69.7%. Further, the “5-HT2A-antag [%]” value in assay [7] worked out at 34.2%. Also, the activation at 1 µM in assay [8] stood at 0%.

For `O=C1CCc2ccc(OCCCCN3CCN(c4cccc5c4ccn5Cc4cccc(F)c4)CC3)cc2N1` [Compound 63, 7-[4-[4-[1-[(3-Fluorophenyl)methyl]indol-4-yl]piperazin-1-yl]butoxy]-3,4-dihydro-1H-quinolin-2-one], in [1], the “5-HT2C [%] binding assay result” value turned out to be 89%. Further, the “H1 [%] affinity test result” value in assay [3] is listed as 81%. The “D3-antag [%]” value in assay [4] came out at 72%. In addition, the “5-HT1A-ag [%]” value in assay [5] is 26%. For the same compound, the “5-HT2A-ag [%]” value in [6] amounted to 6%. Moreover, in [7], the “5-HT2A-antag [%]” value stood at 63%. Moreover, the activation at 1 µM in assay [8] is -1%.

For the compound `O=C1CCc2ccc(OCCCCN3CCN(c4cccc5c4ccn5Cc4cccc(Cl)c4)CC3)cc2N1` [Compound 67, 7-[4-[4-[1-[(3-Chlorophenyl)methyl]indol-4-yl]piperazin-1-yl]butoxy]-3,4-dihydro-1H-quinolin-2-one], the “5-HT2C [%] binding assay result” value in [1] turned out to be 76%. For the same compound, in assay [4], the “D3-antag [%]” value was determined as 74%. In assay [5], the “5-HT1A-ag [%]” value came to 23%. For the same compound, in assay [6], the “5-HT2A-ag [%]” value is recorded as 4%. Further, in [7], the “5-HT2A-antag [%]” value is reported as 34%. For the same compound, the activation at 1 µM in [8] is 0%.

For `NC(=O)c1ccccc1OCCCN1CCN(c2cccc3c2ccn3S(=O)(=O)c2ccccc2)CC1` [Compound 72, 2-[3-[4-[1-(Benzenesulfonyl)indol-4-yl]piperazin-1-yl]propoxy]-benzamide], the “5-HT2C [%] binding assay result” value in assay [1] is listed as 35%. For the same compound, the “M3 [%] affinity test result” value in [9] came out at 23%. Moreover, the “H1 [%] affinity test result” value in assay [3] stood at 80%. In addition, the “D3-antag [%]” value in assay [4] is given as 74%. Moreover, the “5-HT1A-ag [%]” value in assay [5] came to 16%. For the same compound, the “5-HT2A-ag [%]” value in assay [6] stood at 2%. The “5-HT2A-antag [%]” value in assay [7] is 45%. Besides, the activation at 1 µM in [8] is -2%. In assay [10], the Ki came out at 18 nM.
